Laboratory results: ChEMBL document CHEMBL1201862, “PubChem BioAssay data set” (2004)
Counter-ions that a name gives are not always drawn.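 Dose response: 5 concentrations. Exposure: 48 h. Format: 96-well plates. Endpoint: linear interpolation; highest concentration if not reached. Abbreviation: GI50, concentration required for 50% inhibition of growth.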 Activity calls are given as the source filed them. Rule as the data show it: active = GI50 up to about 1.1 µM and inactive = higher.

Experiments:
Experiment in all cases: NCI anticancer screen, dose series, 48 h
A498 = system: A498
A549 = system: A549
CAKI-1 = system: CAKI-1
EKVX = system: EKVX
HCT-116 = system: HCT-116
HT-29 = system: HT-29
MDA-MB-435 = system: MDA-MB-435
Malme-3M = system: Malme-3M
NCI-H226 = system: NCI-H226
NCI-H23 = system: NCI-H23
NCI-H522 = system: NCI-H522
NCI/ADR-RES = system: NCI/ADR-RES
OVCAR-3 = system: OVCAR-3
RPMI-8226 = system: RPMI-8226
RXF 393 = system: RXF 393
SF-268 = system: SF-268
SN12C = system: SN12C
SNB-19 = system: SNB-19
SW-620 = system: SW-620
CCRF-CEM = system: CCRF-CEM

Structure (SMILES) | GI50 (A498) | GI50 (A549) | GI50 (CAKI-1) | GI50 (EKVX) | GI50 (HCT-116) | GI50 (HT-29) | GI50 (MDA-MB-435) | GI50 (Malme-3M) | GI50 (NCI-H226) | GI50 (NCI-H23) | GI50 (NCI-H522) | GI50 (NCI/ADR-RES) | GI50 (OVCAR-3) | GI50 (RPMI-8226) | GI50 (RXF 393) | GI50 (SF-268) | GI50 (SN12C) | GI50 (SNB-19) | GI50 (SW-620) | GI50 (CCRF-CEM)
Cc1cc(-c2nc3cc(F)ccc3s2)ccc1NC(=O)[C@@H](N)CCCCN | 10.2 µM (inactive) | 1.67 µM (inactive) | 0.647 µM (active) | 1.87 µM (inactive) | 2 µM (inactive) | 2.82 µM (inactive) | 1.79 µM (inactive) | 17.4 µM (inactive) | 0.134 µM (active) | 1.48 µM (inactive) | 5.46 µM (inactive) | 15.2 µM (inactive) | 6.11 µM (inactive) | 2.09 µM (inactive) | 7.26 µM (inactive) | 6.75 µM (inactive) | 13 µM (inactive) | 10.4 µM (inactive) | 2.65 µM (inactive) | –
COC1=C(N2CC2)C(=O)c2nc3n(c2C1=O)CCC3 | 1.41 µM (inactive) | 1.98 µM (inactive) | – | – | 0.434 µM (active) | 0.352 µM (active) | 1.45 µM (inactive) | 0.305 µM (active) | 1.87 µM (inactive) | 0.497 µM (active) | 0.147 µM (active) | 0.453 µM (active) | 0.393 µM (active) | 0.0489 µM (active) | 0.0743 µM (active) | 1.6 µM (inactive) | 1.3 µM (inactive) | 1.39 µM (inactive) | 0.242 µM (active) | 0.265 µM (active)
O=c1oc(C(C(F)(F)F)C(F)(F)F)nc2ccccc12 | > 100 µM (inactive) | > 100 µM (inactive) | > 100 µM (inactive) | > 100 µM (inactive) | > 100 µM (inactive) | > 100 µM (inactive) | > 100 µM (inactive) | > 100 µM (inactive) | > 100 µM (inactive) | > 100 µM (inactive) | > 100 µM (inactive) | > 100 µM (inactive) | > 100 µM (inactive) | > 100 µM (inactive) | > 100 µM (inactive) | – | – | > 100 µM (inactive) | > 100 µM (inactive) | > 100 µM (inactive)
Oc1ccc(C(O)C2CCCCN2)cc1O (stereo not given) [RIMITEROL HYDROBROMIDE] | > 100 µM (inactive) | > 100 µM (inactive) | > 100 µM (inactive) | > 100 µM (inactive) | > 100 µM (inactive) | > 100 µM (inactive) | > 100 µM (inactive) | > 100 µM (inactive) | > 100 µM (inactive) | > 100 µM (inactive) | > 100 µM (inactive) | > 100 µM (inactive) | > 100 µM (inactive) | 54.7 µM (inactive) | > 100 µM (inactive) | > 100 µM (inactive) | > 100 µM (inactive) | > 100 µM (inactive) | 46.7 µM (inactive) | –
CC(=O)OC12c3ccccc3-c3ccccc3C1C(C(=O)O)C2(Cl)C(=O)O (stereo not given) | > 10 µM (inactive) | – | > 10 µM (inactive) | > 10 µM (inactive) | – | > 10 µM (inactive) | > 10 µM (inactive) | > 10 µM (inactive) | > 10 µM (inactive) | > 10 µM (inactive) | > 10 µM (inactive) | > 10 µM (inactive) | > 10 µM (inactive) | > 10 µM (inactive) | > 10 µM (inactive) | > 10 µM (inactive) | > 10 µM (inactive) | > 10 µM (inactive) | > 10 µM (inactive) | > 10 µM (inactive)
CCSCCC(N)C(=O)O (stereo not given) | > 100 µM (inactive) | > 100 µM (inactive) | – | > 100 µM (inactive) | > 100 µM (inactive) | > 100 µM (inactive) | > 100 µM (inactive) | > 100 µM (inactive) | > 100 µM (inactive) | > 100 µM (inactive) | > 100 µM (inactive) | > 100 µM (inactive) | > 100 µM (inactive) | > 100 µM (inactive) | > 100 µM (inactive) | > 100 µM (inactive) | > 100 µM (inactive) | > 100 µM (inactive) | > 100 µM (inactive) | –
